Test results reported in patent publication US12459891B2, “1-[1-(4-benzyloxy-3,5-difluoro-benzoyl)-4-fluoro-pyrrolidine-2-carbonyl]-pyrrolidine-2-carbonitrile” (ACCURE THERAPEUTICS, S.L., priority 2020, dated 2025).

Molecular target: T1, human prolyl oligopeptidase (Homo sapiens, UniProt P48147)
T1 construct: His tail; made in house; host or cells: E. coli BL21
T1 sequence (P48147 1-710): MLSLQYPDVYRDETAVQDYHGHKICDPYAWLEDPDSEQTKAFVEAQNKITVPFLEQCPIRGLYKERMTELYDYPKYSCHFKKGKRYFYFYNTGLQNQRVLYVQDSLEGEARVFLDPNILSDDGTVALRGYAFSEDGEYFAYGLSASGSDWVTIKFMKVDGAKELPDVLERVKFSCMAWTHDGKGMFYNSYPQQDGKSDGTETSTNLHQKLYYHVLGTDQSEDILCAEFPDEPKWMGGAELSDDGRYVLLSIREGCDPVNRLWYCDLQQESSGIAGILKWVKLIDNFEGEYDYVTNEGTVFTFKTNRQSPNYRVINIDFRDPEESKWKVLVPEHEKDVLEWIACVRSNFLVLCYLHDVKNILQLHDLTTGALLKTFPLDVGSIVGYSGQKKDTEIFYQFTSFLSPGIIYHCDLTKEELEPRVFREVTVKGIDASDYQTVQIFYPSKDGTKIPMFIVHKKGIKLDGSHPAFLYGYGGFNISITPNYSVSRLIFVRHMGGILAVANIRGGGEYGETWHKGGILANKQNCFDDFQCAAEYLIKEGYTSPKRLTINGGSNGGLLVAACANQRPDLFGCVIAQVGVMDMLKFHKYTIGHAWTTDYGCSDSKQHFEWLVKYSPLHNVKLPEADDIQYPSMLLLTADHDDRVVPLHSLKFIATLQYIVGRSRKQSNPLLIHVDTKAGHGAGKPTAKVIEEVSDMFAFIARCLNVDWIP
Test: POP inhibition assay (Z-G-P-AMC substrate, fluorimetric)
Format: biochemical
Details: hPOP 20 to 60 nM, 15 min preincubation, 1 hour at 37° C., pH 8.0
Procedure: POP was obtained by expression in E. coli and affinity purification using a His tail fusion according to a literature procedure (Tarragó T et al., Chem Bio Chem 2006; 7:827-33) summarized below:
hPOP expression: E. coli BL21 competent cells were transformed with pETM10 hPOP. To induce expression, a pre-culture of LB medium (50 mL) containing kanamycin (50 μg/mL) was inoculated with one colony and was grown overnight at 37° C. Next day, two cultures of LB medium (500 mL) were inoculated with the overnight culture (10 mL). The inoculated cultures were grown at 37° C. and 220 rpm until the OD595 was 1.2 (2.5-3 hours). […] The column was washed with suspension buffer until the absorbance at 280 nm returned to basal level. […] POP activity was checked in all fractions and positive ones were analyzed by SDS-PAGE and stained with Biosafe Comassie Stain G-250. […] Recombinant hPOP was quantified with the Bio-Rad Protein Assay with BSA as standard. […]
POP activity was determined following the method described by Toide et al (Toide K et al., J. Pharmacol. Exp. Ther. 1995; 274:1370-8), using Z-G-P-AMC (N-benzyloxycarbonyl-Gly-Pro-methylcoumarinyl-7-amide) as POP substrate. […]
Several concentration points (ranging from 25 μM to 400 μM) were measured for each compound. The inhibitory activity on prolyl oligopeptidase was calculated according to eq 1. […]

SMILES | IC50
N#C[C@@H]1CCCN1C(=O)[C@@H]1CC(F)(F)CN1C(=O)c1ccc(OCc2ccccc2)c(F)c1 [Comp Ex. 4, (S)-1-((S)-1-(4-(benzyloxy)-3-fluorobenzoyl)-4,4-difluoropyrrolidine-2-carbonyl) pyrrolidine-2-carbonitrile] | 365 nM
N#C[C@@H]1CCCN1C(=O)[C@@H]1C[C@@H](F)CN1C(=O)c1cc(F)c(OCc2ccccc2)c(F)c1 [Example 1, (S)-1-((2S,4R)-1-(4-(benzyloxy)-3,5-difluorobenzoyl)-4-fluoropyrrolidine-2-carbonyl)pyrrolidine-2-carbonitrile] | 45 nM
